According to the NIST ThermoML archive (doi:10.1016/j.jct.2009.07.002):
± gives the expanded uncertainty stated by the source.

Assay: isobaric coefficient of expansion
Details: Liquid, DSC with Pressure Shift

CCCCCCCO [heptan-1-ol]
isobaric coefficient of expansion
Details | 278.15 K | 288.15 K | 298.15 K | 308.15 K | 318.15 K | 328.15 K | 338.15 K | 348.15 K
5000 kPa | 0.000799 ± 3.4e-05 1/K | 0.000815 ± 3.5e-05 1/K | 0.000831 ± 3.5e-05 1/K | 0.000854 ± 3.6e-05 1/K | 0.000878 ± 3.7e-05 1/K | 0.000903 ± 3.8e-05 1/K | 0.000928 ± 3.9e-05 1/K | 0.000956 ± 4.1e-05 1/K
10000 kPa | 0.000779 ± 3.3e-05 1/K | 0.000798 ± 3.4e-05 1/K | 0.000811 ± 3.4e-05 1/K | 0.000832 ± 3.5e-05 1/K | 0.000854 ± 3.6e-05 1/K | 0.000876 ± 3.7e-05 1/K | 0.000901 ± 3.8e-05 1/K | 0.000927 ± 3.9e-05 1/K
15000 kPa | 0.000767 ± 3.3e-05 1/K | 0.000784 ± 3.3e-05 1/K | 0.000795 ± 3.4e-05 1/K | 0.000813 ± 3.5e-05 1/K | 0.000833 ± 3.5e-05 1/K | 0.000849 ± 3.6e-05 1/K | 0.000875 ± 3.7e-05 1/K | 0.000899 ± 3.8e-05 1/K
20000 kPa | 0.000754 ± 3.2e-05 1/K | 0.000769 ± 3.3e-05 1/K | 0.000779 ± 3.3e-05 1/K | 0.000796 ± 3.4e-05 1/K | 0.000814 ± 3.5e-05 1/K | 0.000831 ± 3.5e-05 1/K | 0.000851 ± 3.6e-05 1/K | 0.000872 ± 3.7e-05 1/K
25000 kPa | 0.000741 ± 3.1e-05 1/K | 0.000757 ± 3.2e-05 1/K | 0.000762 ± 3.2e-05 1/K | 0.000776 ± 3.3e-05 1/K | 0.000792 ± 3.4e-05 1/K | 0.000811 ± 3.4e-05 1/K | 0.00083 ± 3.5e-05 1/K | 0.000848 ± 3.6e-05 1/K
30000 kPa | 0.000726 ± 3.1e-05 1/K | 0.000743 ± 3.2e-05 1/K | 0.000747 ± 3.2e-05 1/K | 0.000761 ± 3.2e-05 1/K | 0.000775 ± 3.3e-05 1/K | 0.000792 ± 3.4e-05 1/K | 0.000809 ± 3.4e-05 1/K | 0.000826 ± 3.5e-05 1/K
35000 kPa | 0.000713 ± 3e-05 1/K | 0.00073 ± 3.1e-05 1/K | 0.000734 ± 3.1e-05 1/K | 0.000747 ± 3.2e-05 1/K | 0.00076 ± 3.2e-05 1/K | 0.000775 ± 3.3e-05 1/K | 0.000791 ± 3.4e-05 1/K | 0.000806 ± 3.4e-05 1/K
40000 kPa | 0.000697 ± 3e-05 1/K | 0.000716 ± 3e-05 1/K | 0.000716 ± 3e-05 1/K | 0.00073 ± 3.1e-05 1/K | 0.000742 ± 3.1e-05 1/K | 0.000756 ± 3.2e-05 1/K | 0.000769 ± 3.3e-05 1/K | 0.000786 ± 3.3e-05 1/K
45000 kPa | 0.00069 ± 2.9e-05 1/K | 0.000708 ± 3e-05 1/K | 0.000709 ± 3e-05 1/K | 0.000717 ± 3e-05 1/K | 0.00073 ± 3.1e-05 1/K | 0.00074 ± 3.1e-05 1/K | 0.000754 ± 3.2e-05 1/K | 0.000768 ± 3.3e-05 1/K
50000 kPa | 0.000682 ± 2.9e-05 1/K | 0.000694 ± 2.9e-05 1/K | 0.000695 ± 2.9e-05 1/K | 0.000705 ± 3e-05 1/K | 0.000714 ± 3e-05 1/K | 0.000726 ± 3.1e-05 1/K | 0.000741 ± 3.1e-05 1/K | 0.000752 ± 3.2e-05 1/K
55000 kPa | 0.000673 ± 2.9e-05 1/K | 0.000686 ± 2.9e-05 1/K | 0.000684 ± 2.9e-05 1/K | 0.000693 ± 2.9e-05 1/K | 0.000703 ± 3e-05 1/K | 0.000715 ± 3e-05 1/K | 0.000725 ± 3.1e-05 1/K | 0.000737 ± 3.1e-05 1/K
